The subject of assay [1] is S. Typhimurium ATCC14028. In words: Static peg assay for prevention of biofilm formation (Calgary device, crystal violet). It is filed as cell-based, Salmonella Typhimurium. In a few lines: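 Calgary 96-peg device, ca. 10^6 cells of ATCC14028 per well in TSB 1/20 for 24 h at 25° C (or 48 h at 16° C, medium and compound renewed at 24 h), or in CFA broth for 24 h at 37° C, static, with two-fold compound dilutions. Crystal violet stain, acetic acid extraction, OD570. IC50 from 2–3 independent experiments.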

Assay [2] deals with Pseudomonas aeruginosa PA14. The description is as above. It is filed as cell-based. On the procedure:
(§1) Evaluation of the biofilm inhibitory activity of some substituted 2-amino-1H-imidazoles of the invention was carried out by growing up biofilms of S. Typhimurium ATCC14028 or SL1344 or Pseudomonas aeruginosa PA14 in the presence of different concentrations (1/2 dilution series) of biofilm inhibitors, by using the Calgary biofilm device. After an incubation period of 24 hours at 25° C. or 37° C. or 48 hours at 16° C. the biofilms were visualized by crystal violet staining. In the next step the stain was extracted from the biofilm with 30% acetic acid. The absorbance of the resolubilized stain at 570 nm is a measure of the amount of biofilm formed.
The device used for Pseudomonas aeruginosa biofilm formation is the same platform carrying polystyrene pegs as described above for Salmonella Typhimurium.
Two-fold serial dilutions of the compounds in 100 μl liquid broth per well were prepared in the microtiter plate. Subsequently, an overnight culture of P. aeruginosa PA14 (grown up in TSB medium) was diluted 1:100 into liquid broth and 100 μl was added to each well of the microtiter plates, resulting in a total amount of 200 μl medium per well. The pegged lid was placed on the microtiter plate and the plate was incubated for 24 hours at 25° C., 30° C. or 37° C. without shaking. During this incubation period biofilms were formed on the surface of the pegs. The liquid broth used for the tests at 25° C. was TSB 1/20. The tests at 37° C. were performed in CFA and/or LBNS broth. During incubation at 30° C. and 37° C. the plates were placed in a humidity controlled container to prevent evaporation of the growth medium. Quantification of biofilm formation was performed similarly as described previously for the S. Typhimurium biofilm assays.
as §1, with “imidazo[1,2-a]pyrimidinium bromide salts” for “2-amino-1H-imidazoles”
as §1, with “substituted imidazo[1,2-a]-pyrimidinium bromide and perchlorate salts produced according to examples 3 and 5” for “substituted 2-amino-1H-imidazoles of the invention”, “C.” for “C. or 37° C. or 48 hours at 16° C.”, “nm was taken as” for “nm is”

Setting [3] is: Salmonella enterica, 24 h, read-out: (1) IC50 (biofilm inhibition).
[4] abbreviates: Pseudomonas aeruginosa, PA14, 24 h, read-out: (2) IC50 (biofilm inhibition).
Setting [5] is: 25° C., 24 hours, Table 15, read-out: (1) IC50 (biofilm inhibition).
The mark [6] stands for this setting: 25° C., 24 hours, Table 15, read-out: (2) IC50 (biofilm inhibition).
Setting [7] is: 25° C., Table 16, read-out: S. Typhimurium IC50 (biofilm formation).
The mark [8] stands for this setting: 25° C., Table 16, read-out: P. aeruginosa IC50 (biofilm formation).
Setting [9] is: 25° C., Table 17, read-out: S. Typhimurium IC50 (biofilm formation).
Setting [10] is: 25° C., Table 17, read-out: P. aeruginosa IC50 (biofilm formation).
[11] abbreviates: 25° C., Table 18, read-out: S. Typhimurium IC50 (biofilm formation).
The mark [12] stands for this setting: 25° C., Table 18, read-out: P. aeruginosa IC50 (biofilm formation).

Like-named read-outs stand apart in the source and are kept apart here. Some results are limits rather than exact numbers.

From patent US20130029981A1, “COMPOUNDS, COMPOSITIONS, AND METHODS FOR CONTROLLING BIOFILMS” (Katholieke Universiteit Leuven, priority 2009, published 2013) come the findings set out here.

One may read the IC50 as the concentration at which inhibition is half-maximal. With `CCCCCCCC[n+]1c(-c2cccc3ccccc23)cn2cccnc21.[O-][Cl+3]([O-])([O-])[O-]` [1-octyl-2-(1-naphthalenyl)-imidazo[1,2-a]-pyrimidin-1-ium perchlorate], the results for the IC50 in assay [1] (setting [3]) and in assay [2] (setting [4]) were ~6.6 µM and 6.83 µM, respectively.
In the same order, the values of `CCCCCCCC[n+]1c(-c2ccc(S(C)(=O)=O)cc2)cn2cccnc21.[O-][Cl+3]([O-])([O-])[O-]` [1-octyl-2-(4-methylsulfonylphenyl)-imidazo[1,2-a]pyrimidin-1-ium perchlorate] are 82 µM and 49.6 µM.
Consider `CCCCCCCC[n+]1c(-c2ccc(-c3ccc([N+](=O)[O-])cc3)cc2)cn2cccnc21.[O-][Cl+3]([O-])([O-])[O-]` [1-octyl-2-(4′-nitro[1,1-biphenylyl]-4-yl)-imidazo[1,2-a]pyrimidin-1-ium perchlorate], for which the IC50 is 1.49 µM in assay [1] (setting [5]) and 1.04 µM in assay [2] (setting [6]).
As to `CCCCCCCC[n+]1c(-c2ccc(Cl)c(Cl)c2)cn2cccnc21.[O-][Cl+3]([O-])([O-])[O-]` [2-(3,4-Dichlorophenyl)-1-octylimidazo[1,2-a]pyrimidin-1-ium perchlorate], the results for the IC50 in assay [1] (setting [3]) and in assay [2] (setting [4]) were 3.84 µM and 12.7 µM, respectively.
In the same order, the values of `CCCCCCCC[n+]1c(-c2cccc(Br)c2)cn2cccnc21.[O-][Cl+3]([O-])([O-])[O-]` [2-(3-Bromophenyl)-1-octylimidazo[1,2-a]pyrimidin-1-ium perchlorate] are 7.33 µM and 7 µM.
For `CCCCCCCC[n+]1c(-c2ccc(F)cc2)cn2cccnc21.[O-][Cl+3]([O-])([O-])[O-]` [2-(4-Fluorophenyl)-1-octylimidazo[1,2-a]pyrimidin-1-ium perchlorate], in that order: 35.7 µM and 19.5 µM.
For `CCCCCCCC[n+]1c(-c2ccc(OC)cc2)cn2cccnc21.[O-][Cl+3]([O-])([O-])[O-]` [2-(4-Methoxyphenyl)-1-octylimidazo[1,2-a]pyrimidin-1-ium perchlorate], the IC50 in assay [1] (setting [3]) came out at 34.8 µM; in assay [2] (setting [4]), 8.73 µM.
For `CCCCCCCC[n+]1c(-c2ccc(SC)cc2)cn2cccnc21.[O-][Cl+3]([O-])([O-])[O-]` [2-(4-Methylthiophenyl)-1-octylimidazo[1,2-a]pyrimidin-1-ium perchlorate], in that order: 20.7 µM and 9.29 µM.
As for `CCCCN1c2nccc[n+]2CC1(O)c1ccc([N+](=O)[O-])cc1` (centres unmarked) [Compound 31], the IC50 was 293 µM in assay [1] (setting [7]) and 145 µM in assay [2] (setting [8]).
For `CC(C)CN1c2nccc[n+]2CC1(O)c1ccc([N+](=O)[O-])cc1` (centres unmarked) [Compound 32], in that order: 322 µM and 192 µM.
With `CC(C)(C)N1c2nccc[n+]2CC1(O)c1ccc([N+](=O)[O-])cc1` (centres unmarked) [Compound 33], the IC50 in assay [1] (setting [7]) is 211 µM; in assay [2] (setting [8]), 41.5 µM.
In the case of `CCCCCCCCN1c2nccc[n+]2CC1(O)c1ccc([N+](=O)[O-])cc1` (centres unmarked) [Compound 35], the IC50 in assay [1] (setting [5]) is 6.62 µM; in assay [1] (setting [7]), 6.6 µM; in assay [2] (setting [6]) it was 7.65 µM; in assay [2] (setting [8]), 19.7 µM.
`CCCCCCCCCCN1c2nccc[n+]2CC1(O)c1ccc([N+](=O)[O-])cc1` (centres unmarked) [Compound 36]: the IC50 in assay [1] (setting [5]) was 9.95 µM; in assay [1] (setting [7]) it was 9.9 µM; in assay [2] (setting [8]) it was 22.3 µM.
`CCCCCCCCN1c2nccc[n+]2CC1(O)c1ccc(F)cc1` (centres unmarked) [Compound 39]: the IC50 in assay [1] (setting [5]) turned out to be 7.58 µM; in assay [1] (setting [7]), 7.6 µM; in assay [2] (setting [6]), 7.12 µM; in assay [2] (setting [8]) it was 108 µM.
In the same order, the values of `CCCCCCCCN1c2nccc[n+]2CC1(O)c1ccc(OC)cc1` (centres unmarked) [Compound 46] are 10.5 µM, 10.5 µM, 13.6 µM and 90.2 µM.
For `CCCCCCCCN1c2nccc[n+]2CC1(O)c1ccc(Cl)c(Cl)c1` (centres unmarked) [Compound 49], in that order: 7.09 µM, 7.1 µM, ~12.3 µM and 11.6 µM.
With `CCCCCCCCN1c2nccc[n+]2CC1(O)c1ccc(SC)cc1` (centres unmarked) [Compound 51], the IC50 is ~13.2 µM in assay [1] (setting [5]), ~13.2 µM in assay [1] (setting [9]), 29 µM in assay [2] (setting [6]) and 36.5 µM in assay [2] (setting [10]).
On to `CCCCCCCCN1c2nccc[n+]2C[C@@]1(O)c1cccc2ccccc12` [Compound 52], for which the IC50 in assay [1] (Salmonella enterica, 25° C., 24 hours, Table 15, read-out: (1) IC50 (biofilm inhibition)) worked out at 14.7 µM; in assay [1] (Salmonella enterica, 25° C., Table 17, read-out: S. Typhimurium IC50 (biofilm formation)) it was 14.7 µM; in assay [2] (Pseudomonas aeruginosa, PA14, 25° C., Table 17, read-out: P. aeruginosa IC50 (biofilm formation)), 15.1 µM; in assay [2] (Pseudomonas aeruginosa, PA14, 24 h, 25° C., 24 hours, Table 15, read-out: (2) IC50 (biofilm inhibition)) it was 16.7 µM.
For the compound `CCCCCCCCN1c2nccc[n+]2CC1(O)c1ccc(-c2ccc([N+](=O)[O-])cc2)cc1` (centres unmarked) [Compound 53], the IC50 in assay [1] (setting [5]) came out at 31 µM; in assay [1] (setting [9]) it was 31 µM; in assay [2] (setting [6]), 119 µM; in assay [2] (setting [10]), 215 µM.
Take `CCCCCCCCN1c2nccc[n+]2CC1(O)c1ccc(S(C)(=O)=O)cc1` (centres unmarked) [Compound 54]: the concentration for half-maximal inhibition (IC50) in assay [1] (setting [5]) is 60.3 µM; in assay [1] (setting [9]) it was 60.3 µM; in assay [2] (setting [6]), 11.5 µM; in assay [2] (setting [10]), 99.9 µM.
In the case of `CCCCCCCCN1c2nccc[n+]2CC1(O)c1ccc(-c2ccc(-c3ccccc3)cc2)cc1` (centres unmarked) [Compound 55], the IC50 in assay [1] (setting [5]) was ~52.8 µM; in assay [1] (setting [9]) it was ~52.8 µM; in assay [2] (setting [6]), 26.8 µM; in assay [2] (setting [10]), 336 µM.
In the case of `CCCCCCCCN1c2nccc[n+]2CC1(O)c1cccc(Br)c1` (centres unmarked) [Compound 56], the IC50 was 7.13 µM in assay [1] (setting [5]), 7.1 µM in assay [1] (setting [9]), ~13.2 µM in assay [2] (setting [6]) and 29 µM in assay [2] (setting [10]).
Consider `OC1(c2ccccc2)C[n+]2cccnc2N1C1CCC1` (centres unmarked) [Compound 57], for which the IC50 is 493 µM in assay [1] (setting [11]) and > 400 µM in assay [2] (setting [12]).
In the same order, the values of `OC1(c2ccccc2)C[n+]2cccnc2N1C1CCCCC1` (centres unmarked) [Compound 58] are 139 µM and 87 µM.
For `OC1(c2ccccc2)C[n+]2cccnc2N1C1CCCCCC1` (centres unmarked) [Compound 59], the IC50 was found to be 84.2 µM in assay [1] (setting [5]), 84.2 µM in assay [1] (setting [11]), 5.81 µM in assay [2] (setting [6]) and 250 µM in assay [2] (setting [12]).
Consider `OC1(c2ccccc2)C[n+]2cccnc2N1C1CCCCCCC1` (centres unmarked) [Compound 60], for which the IC50 amounted to 58.4 µM in assay [1] (setting [5]), 58.4 µM in assay [1] (setting [11]), 4.63 µM in assay [2] (setting [6]) and 176 µM in assay [2] (setting [12]).
Regarding `OC1(c2ccc(Cl)cc2)C[n+]2cccnc2N1C1CCC1` (centres unmarked) [Compound 62], the results for the IC50 in assay [1] (setting [11]) and in assay [2] (setting [12]) were 121 µM and 372 µM, respectively.
Take `OC1(c2ccc(Cl)cc2)C[n+]2cccnc2N1C1CCCC1` (centres unmarked) [Compound 63]: the IC50 turned out to be 41.8 µM in assay [1] (setting [11]) and 163 µM in assay [2] (setting [12]).
In the case of `OC1(c2ccc(Cl)cc2)C[n+]2cccnc2N1C1CCCCCC1` (centres unmarked) [Compound 65], the IC50 in assay [1] (setting [5]) came to 27.9 µM; in assay [1] (setting [11]), 27.9 µM; in assay [2] (setting [6]), 63.8 µM; in assay [2] (setting [12]) it was 76.2 µM.
In the case of `OC1(c2ccc(Cl)cc2)C[n+]2cccnc2N1C1CCCCCCC1` (centres unmarked) [Compound 66], the IC50 in assay [1] (setting [5]) was 12.6 µM; in assay [1] (setting [11]), 12.6 µM; in assay [2] (setting [6]), 15.6 µM; in assay [2] (setting [12]), 22.7 µM.
